In patent US20120328518A1, “PROSTATE SPECIFIC MEMBRANE ANTIGEN INHIBITORS” (PIRAMAL IMAGING SA, priority 2009, published 2012):

What was measured:
PSMA (FOLH1) = molecular target: T1, PSMA (FOLH1) (Homo sapiens, UniProt Q04609); test: In vitro inhibition of NAALADase activity in LNCaP membrane extracts; type: biochemical; conditions: crude membrane extracts from LNCaP cells; release of [3H]-Glutamate from [3H]NAAG, pH7.4, 30 min at 37° C.; read-out: IC50 with respect to NAALADase activity
T1 construct: protein extracted from the membrane fraction of LNCaP cells; host or cells: LNCaP cells (crude membrane extract)
Protocol: NAALADase activity was assayed essentially as described previously (Slusher B S, Tsai G, Yoo G, Coyle J T. Immunocytochemical localization of the N-acetyl-aspartyl-glutamate hydrolyzing enzyme N-acetylated alpha-linked acidic dipeptidase [NAALADase]. J Comp Neurol 1992; 315:217-229) in crude membrane extracts from LNCaP tissue culture cells (ref ATCC CRL-1740). Briefly, the release of [3H]-Glutamate from [3H] N-acetyl-aspartyl-glutamate (NAAG) in 50 mM Tris-Cl buffer pH7.4 after 30 min at 37° C. was measured using 1-5 μg/ml of protein extracted from the membrane fraction of LNCaP cells; substrate and product were resolved by cation-exchange liquid chromatography.

LNCaP xenografts [1] = test: PET/CT-imaging in LNCaP-tumor bearing mice; type: in vivo
LNCaP xenografts [2] = test: PET/CT-imaging in LNCaP-tumor bearing mice; type: in vivo; conditions: 50-70 min after injection of ~10 MBq
Protocol: Example F13 was imaged on a microPET/CT (Inveon, Siemens) in LNCaP tumor-bearing mice 50-70 min after injection of ˜10 MBq radiotracer Example F13.
Example F14 was imaged on a microPET/CT (Inveon, Siemens) in LNCaP tumor-bearing mice 50-70 min after injection of ˜10 MBq radiotracer Example F14.

[3] = Biodistribution in LNCaP bearing nude mice; type: in vivo
Protocol: Male nude mice were implanted subcutaneously with 10 million LNCaP tumor cells, which were freshly expanded in a sterilized solution phosphate-buffered saline (PBS, pH 7.4). 4 weeks after inoculation the mice were injected into the tail vein with 150 kBq of radiolabeled Example F13, diluted in PBS (total injected volume 100 μl). At 30, 60, 120, and 180 min intervals, the mice (in groups of 3) were sacrificed and the organs of interest were collected, rinsed of excess blood, weighed and counted in a gamma-counter.

[4] = Stability in human plasma in vitro (TLC); type: in vitro ADME
Protocol: Stability of Example F13 was investigated in human plasma in vitro. The Example was analyzed by TLC at different time points. […] After two hours, 82% of Example F13 was still intact.

[5] = Metabolic stability, mouse microsomes (TLC); type: in vitro ADME; conditions: TLC after different timepoints
Protocol: (§1) Metabolic stability of Example F13 was assessed by incubating F13 in the presence of mouse, rat, and human microsomes and rat hepatocytes. After different timepoints TLC analysis was performed. No metabolism by microsomes or hepatocytes was found.

[6] = Metabolic stability, rat microsomes (TLC); type: in vitro ADME; conditions: TLC after different timepoints
Protocol: as §1

[7] = Metabolic stability, human microsomes (TLC); type: in vitro ADME; conditions: TLC after different timepoints
Protocol: as §1

[8] = Metabolic stability, rat hepatocytes (TLC); type: in vitro ADME; conditions: TLC after different timepoints
Protocol: as §1

[9] = 110-130 min after injection of ~10 MBq
[10] = 0.5 h after injection of 150 kBq into tail vein
[11] = 1.0 h after injection of 150 kBq into tail vein
[12] = 2.0 h after injection of 150 kBq into tail vein
[13] = 3.0 h after injection of 150 kBq into tail vein

T1 sequence (Q04609 whole entry): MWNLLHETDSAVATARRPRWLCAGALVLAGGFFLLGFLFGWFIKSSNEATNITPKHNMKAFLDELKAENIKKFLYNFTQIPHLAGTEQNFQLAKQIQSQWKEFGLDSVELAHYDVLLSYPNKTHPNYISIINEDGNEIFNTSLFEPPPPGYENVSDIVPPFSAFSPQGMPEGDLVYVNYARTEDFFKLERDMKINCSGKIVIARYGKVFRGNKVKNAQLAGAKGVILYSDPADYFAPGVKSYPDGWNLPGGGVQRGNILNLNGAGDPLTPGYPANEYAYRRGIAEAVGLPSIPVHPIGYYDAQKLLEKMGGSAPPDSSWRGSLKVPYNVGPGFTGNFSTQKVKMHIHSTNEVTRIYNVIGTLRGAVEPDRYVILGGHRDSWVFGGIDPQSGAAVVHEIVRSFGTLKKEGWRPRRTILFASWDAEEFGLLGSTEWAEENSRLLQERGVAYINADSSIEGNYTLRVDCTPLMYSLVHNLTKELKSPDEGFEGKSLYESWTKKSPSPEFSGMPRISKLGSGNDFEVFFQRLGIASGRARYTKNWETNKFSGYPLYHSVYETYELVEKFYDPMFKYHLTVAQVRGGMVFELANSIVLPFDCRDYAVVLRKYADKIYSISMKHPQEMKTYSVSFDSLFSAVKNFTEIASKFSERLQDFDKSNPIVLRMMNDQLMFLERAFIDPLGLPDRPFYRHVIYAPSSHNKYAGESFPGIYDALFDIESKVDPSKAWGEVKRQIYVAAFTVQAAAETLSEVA

## O=C(O)C(F)CC(CP(=O)(O)O)C(=O)O (racemic) [Example F3, rac-2-Fluoro-4-(phosphonomethyl)pentanedioic acid]
PSMA (FOLH1)
  IC50: 30 nM
LNCaP xenografts [1]; 22 μg non-radioactive Example F3 with ~10 MBq Example F15a, 110-130 min
  blocking of tumor-contrast of radiotracer Example F15a: effectively blocked

## O=C(O)C([18F])CC(CP(=O)(O)O)C(=O)O (racemic) [Example F15a, rac-2-[^18F]-Fluoro-4-(phosphonomethyl)pentanedioic acid]
LNCaP xenografts [1]; [9]
  background activity in PET/CT image: very low background activity
  kidney and bladder uptake in PET/CT image: strong kidney and bladder uptake
  renal clearance: rapid renal clearance
  tumor-contrast in PET/CT image: High tumor-contrast

## O=C(O)[C@H](C[C@@H](F)C(=O)O)CP(=O)(O)O [Example F8, (2R,4S)-2-Fluoro-4-(phosphonomethyl)pentanedioic acid]
PSMA (FOLH1)
  IC50: 14 nM

## O=C(O)[C@H](C[C@H](F)C(=O)O)CP(=O)(O)O [Example F10, (2S,4S)-2-Fluoro-4-(phosphonomethyl)pentanedioic acid]
PSMA (FOLH1)
  IC50: 7 nM

## O=C(O)[C@H](C[C@H]([18F])C(=O)O)CP(=O)(O)O [Example F13, (2S,4S)-2-[^18F]-Fluoro-4-(phosphonomethyl)pentanedioic acid]
LNCaP xenografts [2]
  background activity in PET/CT image: very low background activity
  kidney and bladder uptake in PET/CT image: strong kidney and bladder uptake
  renal clearance: rapid renal clearance
  tumor-contrast in PET/CT image: High tumor-contrast
[3]; [10]
  % Dosis/g adrenals: 3.31 % Dosis/g
  % Dosis/g blood: 0.79 % Dosis/g
  % Dosis/g bone: 2.61 % Dosis/g
  % Dosis/g brain: 0.05 % Dosis/g
  % Dosis/g fat: 0.78 % Dosis/g
  % Dosis/g heart: 0.53 % Dosis/g
  % Dosis/g intestine: 0.23 % Dosis/g
  % Dosis/g kidney: 105.78 % Dosis/g
  % Dosis/g liver: 0.40 % Dosis/g
  % Dosis/g lung: 1.12 % Dosis/g
  % Dosis/g muscle: 0.26 % Dosis/g
  % Dosis/g pankreas: 0.45 % Dosis/g
  % Dosis/g prostate: 0.69 % Dosis/g
  % Dosis/g skin: 0.85 % Dosis/g
  % Dosis/g spleen: 3.00 % Dosis/g
  % Dosis/g stomach: 0.51 % Dosis/g
  % Dosis/g tail: 4.69 % Dosis/g
  % Dosis/g testes: 0.76 % Dosis/g
  % Dosis/g thyroid: 0.68 % Dosis/g
  % Dosis/g tumor: 5.31 % Dosis/g
[3]; [11]
  % Dosis/g adrenals: 2.46 % Dosis/g
  % Dosis/g blood: 0.33 % Dosis/g
  % Dosis/g bone: 2.53 % Dosis/g
  % Dosis/g brain: 0.06 % Dosis/g
  % Dosis/g fat: 0.36 % Dosis/g
  % Dosis/g heart: 0.27 % Dosis/g
  % Dosis/g intestine: 0.23 % Dosis/g
  % Dosis/g kidney: 105.40 % Dosis/g
  % Dosis/g liver: 0.42 % Dosis/g
  % Dosis/g lung: 0.49 % Dosis/g
  % Dosis/g muscle: 0.21 % Dosis/g
  % Dosis/g pankreas: 0.22 % Dosis/g
  % Dosis/g prostate: 0.70 % Dosis/g
  % Dosis/g skin: 0.76 % Dosis/g
  % Dosis/g spleen: 2.48 % Dosis/g
  % Dosis/g stomach: 0.26 % Dosis/g
  % Dosis/g tail: 2.37 % Dosis/g
  % Dosis/g testes: 0.50 % Dosis/g
  % Dosis/g thyroid: 0.45 % Dosis/g
  % Dosis/g tumor: 4.08 % Dosis/g
[3]; [12]
  % Dosis/g adrenals: 0.51 % Dosis/g
  % Dosis/g blood: 0.07 % Dosis/g
  % Dosis/g bone: 1.52 % Dosis/g
  % Dosis/g brain: 0.04 % Dosis/g
  % Dosis/g fat: 0.17 % Dosis/g
  % Dosis/g heart: 0.06 % Dosis/g
  % Dosis/g intestine: 0.28 % Dosis/g
  % Dosis/g kidney: 41.15 % Dosis/g
  % Dosis/g liver: 0.24 % Dosis/g
  % Dosis/g lung: 0.17 % Dosis/g
  % Dosis/g muscle: 0.12 % Dosis/g
  % Dosis/g pankreas: 0.07 % Dosis/g
  % Dosis/g prostate: 0.66 % Dosis/g
  % Dosis/g skin: 0.29 % Dosis/g
  % Dosis/g spleen: 0.42 % Dosis/g
  % Dosis/g stomach: 0.11 % Dosis/g
  % Dosis/g tail: 1.73 % Dosis/g
  % Dosis/g testes: 0.15 % Dosis/g
  % Dosis/g thyroid: 0.18 % Dosis/g
  % Dosis/g tumor: 3.13 % Dosis/g
[3]; [13]
  % Dosis/g adrenals: 0.573 % Dosis/g
  % Dosis/g blood: 0.08 % Dosis/g
  % Dosis/g bone: 2.12 % Dosis/g
  % Dosis/g brain: 0.03 % Dosis/g
  % Dosis/g fat: 0.35 % Dosis/g
  % Dosis/g heart: 0.08 % Dosis/g
  % Dosis/g intestine: 1.03 % Dosis/g
  % Dosis/g kidney: 46.96 % Dosis/g
  % Dosis/g liver: 0.35 % Dosis/g
  % Dosis/g lung: 0.16 % Dosis/g
  % Dosis/g muscle: 0.06 % Dosis/g
  % Dosis/g pankreas: 0.09 % Dosis/g
  % Dosis/g prostate: 0.53 % Dosis/g
  % Dosis/g skin: 0.24 % Dosis/g
  % Dosis/g spleen: 0.41 % Dosis/g
  % Dosis/g stomach: 0.20 % Dosis/g
  % Dosis/g tail: 2.52 % Dosis/g
  % Dosis/g testes: 0.20 % Dosis/g
  % Dosis/g thyroid: 0.30 % Dosis/g
  % Dosis/g tumor: 4.54 % Dosis/g
[4]; TLC at different time points
  release of free fluoride upon incubation in human plasma: did not show increased release of free fluoride
[4]; after two hours, TLC
  compound still intact in human plasma: 82%
[5]
  metabolism by microsomes: No metabolism
[6]
  metabolism by microsomes: No metabolism
[7]
  metabolism by microsomes: No metabolism
[8]
  metabolism by hepatocytes: No metabolism

## O=C(O)[C@H](C[C@@H]([18F])C(=O)O)CP(=O)(O)O [Example F14, (2R,4S)-2-[^18F]-Fluoro-4-(phosphonomethyl)pentanedioic acid]
LNCaP xenografts [2]
  background activity in PET/CT image: very low background activity
  kidney and bladder uptake in PET/CT image: strong kidney and bladder uptake
  renal clearance: rapid renal clearance
  tumor-contrast in PET/CT image: High tumor-contrast
